# Measurements taken from US10758534B2 (Vertex Pharmaceuticals Incorporated, priority 2014, dated 2020).
# Target: T1, F508del (Homo sapiens, UniProt P13569, DEL508-508)
# T1 construct: expressed in transfected cells
# Assay: Protocol 2: FRET membrane potential optical assay (VIPR), identification of correction compounds
# Type: cell-based
# Details: Table 3; compounds of Table 1 as modulators of CFTR activity; protocol not stated
# In short: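 Single-addition HTS format: F508del-expressing NIH3T3 cells pre-incubated 16 hrs at 37° C. ± compound, with 27° C. culture as positive control. Channel activation by forskolin 10 μM and genistein 20 μM upon switch to gluconate bath, pH 7.4; read-out is FRET-based depolarization signal.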
# T1 sequence (P13569 with tags, fused parts or gaps DEL508-508): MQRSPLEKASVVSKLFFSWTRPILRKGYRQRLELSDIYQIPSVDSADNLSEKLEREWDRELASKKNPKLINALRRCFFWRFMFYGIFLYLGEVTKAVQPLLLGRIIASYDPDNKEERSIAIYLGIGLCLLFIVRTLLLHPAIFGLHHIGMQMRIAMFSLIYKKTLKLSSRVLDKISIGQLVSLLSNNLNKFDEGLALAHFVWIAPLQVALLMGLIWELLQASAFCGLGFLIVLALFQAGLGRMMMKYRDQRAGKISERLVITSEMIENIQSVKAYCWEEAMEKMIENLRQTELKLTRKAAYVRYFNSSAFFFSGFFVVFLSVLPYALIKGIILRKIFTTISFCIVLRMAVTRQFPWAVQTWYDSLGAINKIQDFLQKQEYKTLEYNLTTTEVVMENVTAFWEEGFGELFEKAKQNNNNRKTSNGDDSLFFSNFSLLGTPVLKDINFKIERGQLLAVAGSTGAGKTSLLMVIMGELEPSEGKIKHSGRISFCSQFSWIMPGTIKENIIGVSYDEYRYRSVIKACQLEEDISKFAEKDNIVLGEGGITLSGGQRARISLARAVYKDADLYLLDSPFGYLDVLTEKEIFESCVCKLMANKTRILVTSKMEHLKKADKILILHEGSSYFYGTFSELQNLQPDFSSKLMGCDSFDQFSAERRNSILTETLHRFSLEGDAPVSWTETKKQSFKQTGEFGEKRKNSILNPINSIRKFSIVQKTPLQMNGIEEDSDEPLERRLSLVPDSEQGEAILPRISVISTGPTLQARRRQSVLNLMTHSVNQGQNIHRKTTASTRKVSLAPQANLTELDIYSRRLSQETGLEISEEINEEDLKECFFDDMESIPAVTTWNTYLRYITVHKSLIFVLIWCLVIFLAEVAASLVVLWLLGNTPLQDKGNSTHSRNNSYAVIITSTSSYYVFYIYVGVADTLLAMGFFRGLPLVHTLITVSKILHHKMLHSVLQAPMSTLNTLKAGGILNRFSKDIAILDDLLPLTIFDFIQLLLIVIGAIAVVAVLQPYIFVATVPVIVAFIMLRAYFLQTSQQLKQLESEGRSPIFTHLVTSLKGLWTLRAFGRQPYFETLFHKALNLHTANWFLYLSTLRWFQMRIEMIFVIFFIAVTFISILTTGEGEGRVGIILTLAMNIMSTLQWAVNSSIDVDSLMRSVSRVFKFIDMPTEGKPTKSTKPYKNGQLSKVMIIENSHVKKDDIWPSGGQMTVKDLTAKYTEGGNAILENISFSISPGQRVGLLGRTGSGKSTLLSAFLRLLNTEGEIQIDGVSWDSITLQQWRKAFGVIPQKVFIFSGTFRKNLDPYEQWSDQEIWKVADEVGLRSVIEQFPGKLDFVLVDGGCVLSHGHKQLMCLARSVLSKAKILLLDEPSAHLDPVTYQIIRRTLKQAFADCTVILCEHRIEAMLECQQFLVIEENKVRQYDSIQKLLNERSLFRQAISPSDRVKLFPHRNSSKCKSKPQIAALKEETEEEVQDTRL
row,SMILES,EC30
1,"CC(C)Oc1ccc(-c2ccc(C(=O)NS(=O)(=O)c3cccc(N)n3)c(N3CCCC(CC(F)(F)F)C3)n2)cn1 (stereo not drawn) [Compound 656, N-[(6-amino-2-pyridyl)sulfonyl]-6-(6-isopropoxy-3-pyridyl)-2-[3-(2,2,2-trifluoroethyl)-1-piperidyl]pyridine-3-carboxamide]",+++ (“+++” means <3 uM)
2,"CC(C)COc1cc(F)cc(-c2ccc(C(=O)NS(=O)(=O)c3cccc(N)n3)c(N3CC[C@@H](C)C3(C)C)n2)c1 [Compound 657, N-[(6-amino-2-pyridyl)sulfonyl]-6-(3-fluoro-5-isobutoxy-phenyl)-2-[(3R)-2,2,3-trimethylpyrrolidin-1-yl]pyridine-3-carboxamide]",+++ (“+++” means <3 uM)
3,"CC(C)Oc1ccc(-c2ccc(C(=O)NS(=O)(=O)c3cccc(N)n3)c(N3CCC(Cc4ccccc4)C3C)n2)cn1 (stereo not drawn) [Compound 658, N-[(6-amino-2-pyridyl)sulfonyl]-2-(3-benzyl-2-methyl-pyrrolidin-1-yl)-6-(6-isopropoxy-3-pyridyl)pyridine-3-carboxamide]",+++ (“+++” means <3 uM)
4,"CC(C)COc1cc(F)cc(-c2ccc(C(=O)NS(=O)(=O)c3cccc(N)n3)c(N3CCCC3c3ccccn3)n2)c1 (stereo not drawn) [Compound 659, N-[(6-amino-2-pyridyl)sulfonyl]-6-(3-fluoro-5-isobutoxy-phenyl)-2-[2-(2-pyridyl)pyrrolidin-1-yl]pyridine-3-carboxamide]",++ (“++” means between 3 uM and 10 uM)
5,"C[C@@H]1CC[C@H](C)N1c1nc(-c2ccccc2)ccc1C(=O)NS(=O)(=O)c1ccc[nH]c1=O [Compound 660, 2-[(2S,5R)-2,5-dimethylpyrrolidin-1-yl]-N-[(2-oxo-1H-pyridin-3-yl)sulfonyl]-6-phenyl-pyridine-3-carboxamide]",+ (“+” means greater than 10 uM)
6,"COc1cccc(-c2ccc(C(=O)NS(=O)(=O)c3cccc(N)n3)c(Oc3c(C)cc(C)cc3C)n2)c1F [Compound 661, N-[(6-amino-2-pyridyl)sulfonyl]-6-(2-fluoro-3-methoxy-phenyl)-2-(2,4,6-trimethylphenoxy)pyridine-3-carboxamide]",+++ (“+++” means <3 uM)
7,"Cc1cc(C)c(CN2CCc3ccccc3CC2C(=O)NS(=O)(=O)c2ccc[nH]c2=O)c(C)c1 (stereo not drawn) [Compound 662, N-[(2-oxo-1H-pyridin-3-yl)sulfonyl]-3-[(2,4,6-trimethylphenyl)methyl]-1,2,4,5-tetrahydro-3-benzazepine-4-carboxamide]",+ (“+” means greater than 10 uM)
8,"CC(C)COc1cc(F)cc(-c2ccc(C(=O)NS(=O)(=O)c3cccc(N)n3)c(N3CCCC3(C)Cc3ccccc3)n2)c1 (stereo not drawn) [Compound 663, N-[(6-amino-2-pyridyl)sulfonyl]-2-(2-benzyl-2-methyl-pyrrolidin-1-yl)-6-(3-fluoro-5-isobutoxy-phenyl)pyridine-3-carboxamide]",+++ (“+++” means <3 uM)
9,"CC(C)COc1cc(F)cc(-c2ccc(C(=O)NS(=O)(=O)c3ccn[nH]3)c(N3CCC[C@@H](C)C3)n2)c1 [Compound 668, 6-(3-fluoro-5-isobutoxy-phenyl)-2-[(3R)-3-methyl-1-piperidyl]-N-(1H-pyrazol-5-ylsulfonyl)pyridine-3-carboxamide]",+++ (“+++” means <3 uM)
10,"Cc1cccc(C)c1Oc1nc(-c2cc(F)cc(OCC(C)C)c2)ccc1C(=O)NS(=O)(=O)c1ccn[nH]1 [Compound 671, 2-(2,6-dimethylphenoxy)-6-(3-fluoro-5-isobutoxy-phenyl)-N-(1H-pyrazol-5-ylsulfonyl)pyridine-3-carboxamide]",+++ (“+++” means <3 uM)

# Results, then the molecule that gave them:
row,EC30,SMILES
1,+++ (“+++” means <3 uM),"CC1CCN(c2nc(-c3cc(F)cc(OCC4CC4)c3)ccc2C(=O)NS(=O)(=O)c2ccc[nH]c2=O)CC1 [Compound 664, 6-[3-(cyclopropylmethoxy)-5-fluoro-phenyl]-2-(4-methyl-1-piperidyl)-N-[(2-oxo-1H-pyridin-3-yl)sulfonyl]pyridine-3-carboxamide]"
2,+++ (“+++” means <3 uM),"Cc1cc(C)c(Oc2nc3c(cc2C(=O)NS(=O)(=O)c2cccc(N)n2)CCC(C)(C)C3)c(C)c1 [Compound 665, N-[(6-amino-2-pyridyl)sulfonyl]-7,7-dimethyl-2-(2,4,6-trimethylphenoxy)-6,8-dihydro-5H-quinoline-3-carboxamide]"
3,++ (“++” means between 3 uM and 10 uM),"Cc1ccccc1CN1Cc2ccccc2C1(C)C(=O)NS(=O)(=O)c1cccc(N)n1 (stereo not drawn) [Compound 666, N-[(6-amino-2-pyridyl)sulfonyl]-1-methyl-2-(o-tolylmethyl)isoindoline-1-carboxamide]"
4,+++ (“+++” means <3 uM),"Cc1cc(C)c(Oc2nc(C(C)(C)C)ccc2C(=O)NS(=O)(=O)c2cccn(C)c2=O)c(C)c1 [Compound 667, 6-tert-butyl-N-[(1-methyl-2-oxo-3-pyridyl)sulfonyl]-2-(2,4,6-trimethylphenoxy)pyridine-3-carboxamide]"
5,+++ (“+++” means <3 uM),"Cc1cc(C)c(CN2CCc3ccccc3CC2C(=O)NS(=O)(=O)c2cccc(N3CCOCC3)n2)c(C)c1 (stereo not drawn) [Compound 669, N-[(6-morpholino-2-pyridyl)sulfonyl]-3-[(2,4,6-trimethylphenyl)methyl]-1,2,4,5-tetrahydro-3-benzazepine-4-carboxamide]"
6,++ (“++” means between 3 uM and 10 uM),"Cc1cc(C)c(Oc2nc(C)ccc2C(=O)NS(=O)(=O)c2ccn[nH]2)c(C)c1 [Compound 670, 6-methyl-N-(1H-pyrazol-5-ylsulfonyl)-2-(2,4,6-trimethylphenoxy)pyridine-3-carboxamide]"
7,+++ (“+++” means <3 uM),"Cc1cccc(-c2ccc(C(=O)NS(=O)(=O)c3cccc(N)n3)c(Oc3c(C)cc(C)cc3C)n2)c1 [Compound 672, N-[(6-amino-2-pyridyl)sulfonyl]-6-(m-tolyl)-2-(2,4,6-trimethylphenoxy)pyridine-3-carboxamide]"
8,+++ (“+++” means <3 uM),"Cc1cc(C)c(Oc2nc(-c3ccc4c(c3)OCCO4)ccc2C(=O)NS(=O)(=O)c2cccc(N)n2)c(C)c1 [Compound 673, N-[(6-amino-2-pyridyl)sulfonyl]-6-(2,3-dihydro-1,4-benzodioxin-6-yl)-2-(2,4,6-trimethylphenoxy)pyridine-3-carboxamide]"
9,+++ (“+++” means <3 uM),"Cc1cc(C)c(CN2CCCc3ccccc3C2C(=O)NS(=O)(=O)c2ccccc2)c(C)c1 (stereo not drawn) [Compound 674, N-(benzenesulfonyl)-2-[(2,4,6-trimethylphenyl)methyl]-1,3,4,5-tetrahydro-2-benzazepine-1-carboxamide]"
10,+++ (“+++” means <3 uM),"CC(C)Oc1ccc(-c2ccc(C(=O)NS(=O)(=O)c3cccc(N)n3)c(N3C(C)CC4CCCCC43)n2)cn1 (stereo not drawn) [Compound 675, N-[(6-amino-2-pyridyl)sulfonyl]-6-(6-isopropoxy-3-pyridyl)-2-(2-methyl-2,3,3a,4,5,6,7,7a-octahydroindol-1-yl)pyridine-3-carboxamide]"
11,+++ (“+++” means <3 uM),"Cc1cc(C)c(Oc2nc(-n3ccc(C(F)(F)F)n3)ccc2C(=O)NS(=O)(=O)c2cccc(N)n2)c(C)c1 [Compound 676, N-[(6-amino-2-pyridyl)sulfonyl]-6-[3-(trifluoromethyl)pyrazol-1-yl]-2-(2,4,6-trimethylphenoxy)pyridine-3-carboxamide]"
